Data from the NIST ThermoML archive (doi:10.1016/j.fluid.2017.12.001).

What was measured:
[1] = 101.33 kPa, Liquid; for viscosity: Concentric cylinders viscometry; for mass density: Vibrating tube method; for speed of sound: Single path-length method
[2] = xn = mol fraction of the nth substance listed; settings: 100.9 kPa, Liquid, Concentric cylinders viscometry, x2 = 0

O [water]
[1]
Settings	mass density [kg/m3]	speed of sound [m/s]	viscosity [mPa·s]
283 K	999.72	–	1.31
286 K	999.46	1457	1.23
288 K	–	–	1.15
291 K	998.69	1475	1.08
293 K	–	–	1.02
296 K	997.66	1490	0.96
298 K	–	–	0.9
301 K	996.37	1503	0.85
303 K	–	–	0.8
306 K	994.87	1515	0.76
308 K	–	–	0.72
311 K	993.15	1525	0.69
313 K	–	1529	0.65
316 K	991.23	1533	0.62
318 K	–	1537	0.59
321 K	989.15	1540	0.57
323 K	988.03	–	0.54

O [water] + CCCC(=O)[O-].CC[NH2+]CC
[2]
Settings	viscosity [mPa·s]
283.15 K	1.31
285.65 K	1.23
288.15 K	1.15
290.65 K	1.08
293.15 K	1.02
295.65 K	0.96
298.15 K	0.9
300.65 K	0.85
303.15 K	0.8
305.65 K	0.76
308.15 K	0.72
310.65 K	0.69
313.15 K	0.65
315.65 K	0.62
318.15 K	0.59
320.65 K	0.57
323.15 K	0.54
325.65 K	0.51
328.15 K	0.49
330.65 K	0.47
333.15 K	0.45
335.65 K	0.43
338.15 K	0.41
340.65 K	0.39
343.15 K	0.37
